From ChEMBL document CHEMBL5252572, “Design, synthesis, and anti-triple negative breast cancer activity of novel Toosendanin derivatives” (Bioorg Med Chem Lett, 2023) come the findings set out here.

Structures can show the parent of a compound that is named as a salt. Calls of active or inactive are those of the source. The rule behind the calls is not given here.

The test system of assay [1] is 4T1. Put plainly: Antitumor activity against mouse 4T1 cells implanted in BALB/C mouse assessed as tumor growth inhibition at 4 mg/kg administered once every two days for 15 days in the presence of toosendanin relative to control. Type of assay: functional. The settings on record: 4T1, 360 h, time 15 day, read-out: TGI.
Assay [2] deals with MDA-MB-231. Kind of assay: Antiproliferative activity against human MDA-MB-231 cells assessed as inhibition of cell growth at 20 uM by SRB assay relative to control. Type of assay: functional. On the technique in general: In SRB staining, fixed cells bind dye roughly in proportion to their protein.
In assay [3] the test system is HCC1806. Kind of assay: Antiproliferative activity against human HCC1806 cells assessed as inhibition of cell growth at 20 uM by SRB assay relative to control. Type of assay: functional.
The subject of assay [4] is MDA-MB-231. Put plainly: Antiproliferative activity against human MDA-MB-231 cells assessed as inhibition of cell growth by SRB assay. Type of assay: functional, cell-based.
Assay [5] relates to HCC1806. Put plainly: Antiproliferative activity against human HCC1806 cells assessed as inhibition of cell growth by SRB assay. Type of assay: functional, cell-based.
Assay [6] relates to HCC1806. Put plainly: Induction of cell cycle arrest in human HCC1806 cells assessed as accumulation at S phase at 10 uM incubated for 24 hrs by flow cytometric analysis. Type of assay: functional, cell-based.
Assay [7] relates to HCC1806. Kind of assay: Induction of cell cycle arrest in human HCC1806 cells assessed as decrease in G2/M phase cells at 10 uM incubated for 24 hrs by flow cytometric analysis. Type of assay: functional, cell-based. In general terms: Flow cytometry measures light scatter and fluorescence of single cells or particles in a stream.
The target of assay [8] is RAC-alpha serine/threonine-protein kinase (Homo sapiens) (UniProt P31749). Put plainly: Inhibition of AKT phosphorylation in human HCC1806 cells at 10 uM incubated for 24 hrs by Western blot analysis. Type of assay: cell-based.
In assay [9] the test system is HCC1806. Put plainly: Inhibition of ERK phosphorylation in human HCC1806 cells at 10 uM incubated for 24 hrs by Western blot analysis. The format is cell-based. Background: A western blot detects proteins with antibodies after separation by electrophoresis.
In assay [10] the test system is HCC1806. Put plainly: Antitumor activity against human HCC1806 cells assessed as reduction in p53 protein level at 10 uM incubated for 24 hrs by Western blot analysis. Type of assay: functional, cell-based.
Assay [11] deals with HCC1806. Put plainly: Antitumor activity against human HCC1806 cells assessed as induction of phosphorylated p38 protein accumulation at 10 uM incubated for 24 hrs by Western blot analysis. The format is functional, cell-based.
Assay [12] concerns HCC1806. Put plainly: Antitumor activity against human HCC1806 cells assessed as induction of p21 protein accumulation at 10 uM incubated for 24 hrs by Western blot analysis. Type of assay: functional, cell-based.
In assay [13] the test system is 4T1. Kind of assay: Antitumor activity against mouse 4T1 cells implanted in BALB/C mouse assessed as tumor growth inhibition at 0.69 mg/kg administered once every two days for 15 days in the presence of adriamycin relative to control. The format is functional. Particulars: 4T1, 360 h, time 15 day, read-out: TGI.

Sequence of RAC-alpha serine/threonine-protein kinase (Homo sapiens) (P31749 whole entry): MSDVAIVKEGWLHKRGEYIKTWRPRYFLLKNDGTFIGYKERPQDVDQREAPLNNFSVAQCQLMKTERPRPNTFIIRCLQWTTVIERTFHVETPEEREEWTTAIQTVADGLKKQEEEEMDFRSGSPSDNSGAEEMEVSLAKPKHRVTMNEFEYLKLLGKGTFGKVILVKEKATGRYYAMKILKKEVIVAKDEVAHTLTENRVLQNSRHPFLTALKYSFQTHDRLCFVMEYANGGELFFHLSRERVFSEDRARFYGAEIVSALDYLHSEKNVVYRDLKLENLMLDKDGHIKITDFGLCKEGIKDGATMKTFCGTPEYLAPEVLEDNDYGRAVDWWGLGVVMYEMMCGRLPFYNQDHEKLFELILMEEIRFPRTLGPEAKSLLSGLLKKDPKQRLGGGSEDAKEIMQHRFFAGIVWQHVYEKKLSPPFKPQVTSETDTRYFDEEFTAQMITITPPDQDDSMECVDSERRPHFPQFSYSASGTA

As for `COc1cccc2c1C(=O)c1c(O)c3c(c(O)c1C2=O)C[C@@](O)(C(=O)CO)C[C@@H]3O[C@H]1C[C@H](N)[C@H](O)[C@H](C)O1` [DOXORUBICIN HYDROCHLORIDE], the inhibition in vivo at 4 mg/kg with 4T1 [1] came out at 90%.
As usually defined, the inhibition is the change of the read-out against control, counted positive when it falls. Turning to `CC(=O)OC1OC[C@]23[C@@H](OC(C)=O)C[C@@H](OC(C)=O)[C@@]1(C)[C@@H]2C[C@@H](OC(C)=O)[C@]1(C)[C@@H]3C(=O)[C@H](OC(C)=O)[C@@]2(C)[C@H](c3ccoc3)C[C@H]3O[C@@]312` (stereo partly drawn), the results for the inhibition at 20 µM in the assay on MDA-MB-231 [2] and in the assay with HCC1806 [3] were 128% and -31%, respectively.
The corresponding values for `COC1OC[C@]23[C@@H](O)C[C@@H](OC(C)=O)[C@@]1(C)[C@@H]2C[C@@H](O)[C@@]1(C)[C@@H]2C(=O)C[C@@H](c4ccoc4)[C@]2(C)[C@@H](OC(C)=O)C(=O)[C@@H]13` (stereo partly drawn) are 4.29% and -15.8%.
As usually defined, the IC50 is the point on the concentration scale where inhibition reaches its midpoint. With `CC(=O)O[C@@H]1C[C@H](O)[C@@]23COC(=O)[C@]1(C)[C@@H]2C[C@@H](O)[C@]1(C)[C@@H]3C(=O)[C@H](OC(C)=O)[C@@]2(C)[C@H](c3ccoc3)C[C@H]3O[C@]321`, the figures for the inhibition at 20 µM in the assay with MDA-MB-231 [2] and in the assay with HCC1806 [3] were 68.7% and 93.8%, respectively. In addition, the IC50 in the assay with MDA-MB-231 [4] was 6.61 µM; with HCC1806 [5] it was 0.98 µM. Besides, the outcome in the assay with HCC1806 [6], in the assay with HCC1806 [7], in the assay on HCC1806 [10], in the assay with HCC1806 [11] and in the assay on HCC1806 [12] was Active. Moreover, the inhibition entry (in assay [8]; with HCC1806 [9]) was “Active” each time.
As for `CC(=O)O[C@@H]1C[C@H](O)[C@@]23COC[C@]1(C)[C@@H]2C[C@@H](O)[C@@]1(C)[C@@H]2/C(=N/O)C[C@@H](c4ccoc4)[C@]2(C)[C@@H](OC(C)=O)C(=O)[C@@H]13`, the inhibition at 20 µM worked out at 4.72% with MDA-MB-231 [2] and 10.9% with HCC1806 [3].
Taken in the same sequence, the figures for `CC(=O)O[C@@H]1C[C@H](O)[C@@]23COC(=O)[C@]1(C)[C@@H]2C[C@@H](O)[C@]1(C)[C@@H]3C(=O)C(O)[C@@]2(C)[C@H](c3ccoc3)C[C@H]3O[C@@]312` (mixture of isomers) were 9.58% and 9.96%.
Taken in the same sequence, the figures for `CC(=O)O[C@@H]1C[C@H](O)[C@@]23COC[C@]1(C)[C@@H]2C[C@@H](OC(=O)c1ccccc1F)[C@@]1(C)[C@@H]2C(=O)C[C@@H](c4ccoc4)[C@]2(C)[C@@H](OC(C)=O)C(=O)[C@@H]13` were 8.23% and -1.53%.
The corresponding values for `CC(=O)O[C@H]1C[C@@H](OC(C)=O)[C@]2(C)C(=O)OC[C@]13[C@H]1C(=O)[C@H](OC(C)=O)[C@@]4(C)[C@H](c5ccoc5)C[C@H]5O[C@]54[C@]1(C)[C@H](OC(C)=O)C[C@@H]23` are 4.86% and -9.68%.
Consider `CC(=O)O[C@H]1C[C@@H](OC(C)=O)[C@]2(C)C(O)OC[C@]13[C@H]1C(=O)[C@H](OC(C)=O)[C@@]4(C)[C@H](c5ccoc5)C[C@H]5O[C@]54[C@]1(C)[C@H](OC(C)=O)C[C@@H]23` (stereo partly drawn), for which the inhibition at 20 µM in the assay on MDA-MB-231 [2] is 6.36%; in the assay on HCC1806 [3], -27.9%.
Taken in the same sequence, the figures for `CC(=O)O[C@@H]1C[C@H](O)[C@@]23COC[C@]1(C)[C@@H]2C[C@@H](OC(=O)c1ccccc1)[C@@]1(C)[C@@H]2C(=O)C[C@@H](c4ccoc4)[C@]2(C)[C@@H](OC(C)=O)C(=O)[C@@H]13` were 20.7% and 14.9%.
The corresponding values for `COc1ccc(C(=O)O[C@@H]2C[C@H]3[C@@]4(C)COC[C@@]3([C@@H](O)C[C@H]4OC(C)=O)[C@H]3C(=O)[C@H](OC(C)=O)[C@]4(C)[C@@H](C(=O)C[C@H]4c4ccoc4)[C@]23C)cc1` are 14.3% and 0.37%.
Taken in the same sequence, the figures for `CC(=O)O[C@@H]1C[C@H](O)[C@@]23COC(=O)[C@]1(C)[C@@H]2C[C@@H](O)[C@@]1(C)[C@@H]2C(=O)C[C@@H](c4ccoc4)[C@]2(C)[C@@H](OC(C)=O)C(=O)[C@@H]13` were 6.87% and -24.7%.
Regarding `CC(=O)O[C@@H]1C[C@H](O)[C@@]23COC[C@]1(C)[C@@H]2C[C@@H](O)[C@@]1(C)[C@@H]2[C@@H](O)C[C@@H](c4ccoc4)[C@]2(C)[C@@H](OC(C)=O)C(=O)[C@@H]13`, the inhibition at 20 µM came out at 61.5% in the assay on MDA-MB-231 [2] and 87.3% with HCC1806 [3]. The IC50 with MDA-MB-231 [4] turned out to be 11.8 µM; in the assay on HCC1806 [5], 5.76 µM.
`CC(=O)O[C@@H]1C[C@H](O)[C@@]23COC[C@]1(C)[C@@H]2C[C@@H](OC(=O)c1ccc([N+](=O)[O-])cc1)[C@@]1(C)[C@@H]2C(=O)C[C@@H](c4ccoc4)[C@]2(C)[C@@H](OC(C)=O)C(=O)[C@@H]13`: the inhibition at 20 µM with MDA-MB-231 [2] was 3.95%; in the assay on HCC1806 [3], -0.88%.
As to `CC(=O)O[C@@H]1C[C@H](O)[C@@]23CO[C@@H](O)[C@]1(C)[C@@H]2C[C@@H](O)[C@]1(C)[C@@H]3C(=O)[C@H](OC(C)=O)[C@@]2(C)[C@H](c3ccoc3)C[C@H]3O[C@]321` [TOOSENDANIN], the inhibition at 20 µM in the assay on MDA-MB-231 [2] turned out to be 79.2%; in the assay with HCC1806 [3] it was 101%. Also, the IC50 in the assay with MDA-MB-231 [4] turned out to be 0.115 µM; with HCC1806 [5], 0.019 µM. The outcome with HCC1806 [6], with HCC1806 [7], in the assay with HCC1806 [10], with HCC1806 [11] and in the assay with HCC1806 [12] was Active. Besides, the inhibition in vivo at 0.69 mg/kg in the assay on 4T1 [13] is 90%. The inhibition result (in assay [8]; in the assay on HCC1806 [9]) was “Active” each time.
For the molecule `CC(=O)O[C@@H]1C[C@H](O)[C@@]23COC[C@]1(C)[C@@H]2C[C@@H](OC(=O)/C=C/c1ccc(OC(F)(F)F)cc1)[C@@]1(C)[C@@H]2C(=O)C[C@@H](c4ccoc4)[C@]2(C)[C@@H](OC(C)=O)C(=O)[C@@H]13`, the inhibition at 20 µM turned out to be 9.9% in the assay with MDA-MB-231 [2] and 18.1% with HCC1806 [3].
On to `CC(=O)O[C@@H]1C[C@H](O)[C@@]23COC[C@]1(C)[C@@H]2C[C@@H](O)[C@@]1(C)[C@@H]2C(=O)C[C@@H](c4ccoc4)[C@]2(C)[C@@H](OC(C)=O)C(=O)[C@@H]13`, for which the inhibition at 20 µM in the assay on MDA-MB-231 [2] was 5.4%; in the assay with HCC1806 [3], -42.3%.
Taken in the same sequence, the figures for `CC(=O)O[C@@H]1C[C@H](O)[C@@]23COC[C@]1(C)[C@@H]2C[C@@H](O)[C@@]1(C)[C@@H]2C(=O)C[C@@H](c4coc(Br)c4)[C@]2(C)[C@@H](OC(C)=O)C(=O)[C@@H]13` were -5.16% and 2.97%.
`CC(=O)O[C@@H]1C[C@H](O)[C@@]23COC[C@]1(C)[C@@H]2CC(=O)[C@@]1(C)[C@@H]2C(=O)C[C@@H](c4ccoc4)[C@]2(C)[C@@H](OC(C)=O)C(=O)[C@@H]13`: the inhibition at 20 µM in the assay with MDA-MB-231 [2] was determined as 11.7%; with HCC1806 [3] it was 14.7%.
